Earlier results in patent publication US10092495B2, “Use of a composition comprising avocado perseose in the protection of epidermal stem cells” (LABORATOIRES EXPANSCIENCE, priority 2013, dated 2018).

Tested on: Ehrlich ascites tumor cells
Conditions: perseitol associated with a potassium ion

OCC(O)C(O)C(O)C(O)C(O)CO (stereo not shown) [perseitol, Perseitol]
incorporation of 3H-leucine: inhibit
